Test results as given in patent US20070259926A1, “mGluR5 modulators III” (AstraZeneca AB, priority 2006, published 2007).
pIC50: −log10 of the molar value.

How the values were obtained:
human mGluR5d = biological target: T1, human mGluR5d (Homo sapiens, UniProt P41594); test: FLIPR assay: functional assessment of mGluR5 antagonism (intracellular calcium mobilization); format: cell-based; settings: cells expressing human mGluR5d; read-out: FLIPR hmGluR5d
T1 construct: expressed in transfected cells
T1 sequence (P41594 21-942 isoform P41594-3 limits assumed): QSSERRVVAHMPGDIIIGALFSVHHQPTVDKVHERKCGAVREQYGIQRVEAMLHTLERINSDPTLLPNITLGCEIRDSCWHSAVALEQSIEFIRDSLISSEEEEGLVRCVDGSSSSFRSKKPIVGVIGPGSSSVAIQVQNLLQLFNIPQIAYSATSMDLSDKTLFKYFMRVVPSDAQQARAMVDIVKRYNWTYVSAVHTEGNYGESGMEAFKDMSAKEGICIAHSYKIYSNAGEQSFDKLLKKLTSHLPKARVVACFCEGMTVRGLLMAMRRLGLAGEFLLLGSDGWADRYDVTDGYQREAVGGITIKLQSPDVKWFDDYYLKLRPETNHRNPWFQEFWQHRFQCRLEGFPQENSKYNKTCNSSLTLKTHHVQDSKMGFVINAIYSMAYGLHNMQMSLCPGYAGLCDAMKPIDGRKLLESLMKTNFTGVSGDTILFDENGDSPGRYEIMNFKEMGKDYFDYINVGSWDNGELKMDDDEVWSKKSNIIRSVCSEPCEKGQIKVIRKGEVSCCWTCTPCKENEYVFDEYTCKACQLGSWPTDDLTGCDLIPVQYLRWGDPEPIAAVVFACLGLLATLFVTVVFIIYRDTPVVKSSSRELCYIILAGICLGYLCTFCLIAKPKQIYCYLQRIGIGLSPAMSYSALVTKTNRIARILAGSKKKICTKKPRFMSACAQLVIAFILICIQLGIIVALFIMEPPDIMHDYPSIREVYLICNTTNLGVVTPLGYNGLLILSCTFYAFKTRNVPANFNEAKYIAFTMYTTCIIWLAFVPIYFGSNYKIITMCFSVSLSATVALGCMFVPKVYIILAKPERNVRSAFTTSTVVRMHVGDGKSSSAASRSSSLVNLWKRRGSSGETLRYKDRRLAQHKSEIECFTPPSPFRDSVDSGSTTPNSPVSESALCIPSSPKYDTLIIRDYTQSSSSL
Source text: The properties of the compounds of the invention can be analyzed using standard assays for pharmacological activity. Examples of glutamate receptor assays are well known in the art as described in for example Aramori et al., Neuron 8:757 (1992), Tanabe et al., Neuron 8:169 (1992), Miller et al., J. Neuroscience 15:6103 (1995), Balazs, et al., J. Neurochemistry 69:151 (1997). The methodology described in these publications is incorporated herein by reference. Conveniently, the compounds of the invention can be studied by means of an assay (FLIPR) that measures the mobilization of intracellular calcium, [Ca^2+]i in cells expressing mGluR5 or another assay (IP3) that measures inositol phosphate turnover.
Cells expressing human mGluR5d as described in WO97/05252 are seeded at a density of 100,000 cells per well on collagen coated clear bottom 96-well plates with black sides and experiments are done 24 h following seeding. […] The fluorescence signal is sampled 50 times at 1 second intervals followed by 3 samples at 5 second intervals immediately after each of the two additions. Responses are measured as the difference between the peak height of the response to agonist, less the background fluorescence within the sample period. […]

[1] = Determination of brain to plasma ratio in rat; format: in vivo; settings: brain and plasma, female Sprague Dawley rats, read-out: Brain/Plasma Ratio of compound in Rat
Method: Brain to plasma ratios are estimated in female Sprague Dawley rats. The compound is dissolved in water or another appropriate vehicle. For determination of brain to plasma ratio the compound is administrated as a subcutaneous, or an intravenous bolus injection, or an intravenous infusion, or an oral administration. At a predetermined time point after the administration a blood sample is taken with cardiac puncture. The rat is terminated by cutting the heart open, and the brain is immediately retained. The blood samples are collected in heparinized tubes and centrifuged within 30 minutes, in order to separate the plasma from the blood cells. The plasma is transferred to 96-well plates and stored at −20° C. until analysis. The brains are divided in half, and each half is placed in a pre-tarred tube and stored at −20° C. until analysis. Prior to the analysis, the brain samples are thawed and 3 ml/g brain tissue of distilled water is added to the tubes. The brain samples are sonicated in an ice bath until the samples are homogenized. Both brain and plasma samples are precipitated with acetonitrile. After centrifugation, the supernatant is diluted with 0.2% formic acid. […] After reconstitution of the residuals the samples are ready for injection onto the HPLC column.

With `COc1cc(-c2nnc(N3CCC[C@@H]3c3nnn(-c4cccc(C#N)c4)n3)n2C)ccn1` [Example 15.3, 3-(5-{(R)-1-[5-(2-Methoxy-pyridin-4-yl)-4-methyl-4H-[1,2,4]triazol-3-yl]-pyrrolidin-2-yl}-tetrazol-2-yl)-benzonitrile] the pIC50 (human mGluR5d) was 7.30 and the Kp [1] was 0.13.
Work on `Cc1cc(-c2nnc(N3CCC[C@@H]3c3nnn(-c4cccc(Cl)c4)n3)n2C)ccn1` [Example 15.1, 4-(5-{(R)-2-[2-(3-Chloro-phenyl)-2H-tetrazol-5-yl]-pyrrolidin-1-yl}-4-methyl-4H-[1,2,4]triazol-3-yl)-2-methyl-pyridine] yielded a pIC50 (human mGluR5d) of 7.96 and a Kp [1] of 0.27.
